Here are results for eight compounds from PubChem BioAssay (NCI).

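Following 48 hours of exposure in 96-well plates, responses at five concentrations were used to interpolate endpoints linearly. Here, GI50 denotes the concentration required for 50% inhibition of growth. TGI: total growth inhibition.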 Bounds are passed on as bounds.

Common to all, as to experiment: DTP human tumour cell line panel, 48 h
Assay [1] relates to HCT-116 colon.
In assay [2] the test system is MDA-MB-231 breast.
Assay [3] has as its system UACC-62 melanoma.
For assay [4], the system named is HCT-15 colon.
Assay [5] has as its system DU-145 prostate.
Assay [6] has as its system MOLT-4 leukemia.
The test system of assay [7] is SN12C renal.
The subject of assay [8] is OVCAR-8 ovarian.
Assay [9] concerns NCI-H226 lung.
The test system of assay [10] is SF-295 CNS.

With `O=C(Nc1ccc(I)cc1F)c1cc(F)ccc1O`, the GI50 – broadly, the concentration giving 50% growth inhibition – in [1] is 0.352 µM; in assay [2], 0.513 µM; in assay [3], 0.259 µM; in [4], 0.499 µM; in [5], 0.655 µM; in assay [6] it was 0.611 µM. In addition, the GI50 in assay [7] was 0.354 µM; in assay [8], 1.07 µM; in [9], 0.985 µM; in assay [10], 1.86 µM. The TGI (commonly the concentration at which net growth stops) in [1] was 1.46 µM; in assay [2], 4.69 µM; in assay [3], 0.853 µM; in [4], more than 27.1 µM; in [5], more than 100 µM; in assay [6], 2.59 µM. Further, the TGI came out at 3.77 µM in [7], 48.7 µM in assay [8], 5.66 µM in assay [9] and 3.74 µM in assay [10].

As to `O=C(O)c1ccccc1/C=C1/Nc2ccccc2C1=O`, the TGI in assay [1], in assay [2], in [3], in [4], in assay [5] and in assay [6] was more than 100 µM each time. Further, the TGI in [7], in assay [8], in assay [9] and in assay [10] was more than 100 µM each time.

Consider `CC1CCCc2c(CC3CC(=O)NC(=O)C3)nc(N)nc21` (stereo not given), for which the TGI in [1], in assay [2], in assay [3], in assay [4], in assay [5] and in [6] was more than 100 µM in each case. The TGI in [7], in [8], in assay [9] and in assay [10] was more than 100 µM in each case.

In the case of `COC(=O)C1=C(C)NC(C)=C(C(=O)OC)C1c1ccccc1[N+](=O)[O-]`, the GI50 in assay [1] was more than 100 µM; in assay [2], 70.7 µM; in assay [3], 29.6 µM; in assay [4], 65.8 µM; in assay [5], more than 100 µM; in assay [6], 78.2 µM. The GI50 is 82.2 µM in assay [7], 64.8 µM in assay [8], 87.6 µM in assay [9] and 57.8 µM in assay [10]. The TGI in assay [1], in [2], in assay [3], in assay [4], in assay [5] and in assay [6] was more than 100 µM each time. The TGI in assay [7], in assay [8], in [9] and in assay [10] was more than 100 µM each time.

Consider `Fc1ccc(-c2ncn(C3CCNCC3)c2-c2ccnc(Oc3ccc(Oc4ccccc4)cc3)n2)cc1`, for which the GI50 in assay [1] was 3.47 µM; in [2], 3.71 µM; in assay [3], 4.29 µM; in assay [4], 3.55 µM; in assay [5], 4.2 µM; in [6], 3.31 µM. For the same compound, the GI50 in assay [7] is 3.57 µM; in [8], 4.2 µM; in assay [9], 3.6 µM; in [10], 4.52 µM. The TGI is 6.76 µM in [1]; 7.17 µM in assay [2]; 7.78 µM in assay [3]; 7.29 µM in [4]; 7.75 µM in assay [5]; 7.59 µM in [6]. Besides, the TGI in assay [7] was determined as 6.96 µM; in assay [8], 8.4 µM; in assay [9], 7.53 µM; in assay [10], 8.84 µM.

Consider `BrCC[N+]12CCCN1CCC2`, for which the TGI is 22.8 µM in assay [1]; 34 µM in assay [2]; 20.5 µM in [3]; 28.2 µM in assay [4]; more than 100 µM in [5]; 12.9 µM in [6]. Besides, the TGI in assay [7] was 29.3 µM; in assay [8] it was 39.3 µM; in assay [9], 60.8 µM; in [10], more than 100 µM.

For `CN1CCN(Cc2ccc(NC(=O)c3cncc(C#Cc4cncc5[nH]ncc45)c3)cc2C(F)(F)F)CC1`, the GI50 in [1] is 0.215 µM; in assay [2], 0.23 µM; in assay [3], 0.336 µM; in assay [4], 1.69 µM; in [5] it was 1.36 µM; in [6] it was 0.773 µM. Moreover, the GI50 was 0.906 µM in assay [7], 1.5 µM in [8], 0.206 µM in assay [9] and 1.73 µM in assay [10]. The TGI came to 2.34 µM in [1]; 1.04 µM in [2]; 1.31 µM in assay [3]; 6.14 µM in assay [4]; 6.45 µM in assay [5]; 4.44 µM in assay [6]. For the same compound, the TGI in [7] came to 5.73 µM; in [8] it was 6.73 µM; in [9], 2.86 µM; in assay [10], 7.4 µM.

Regarding `CCc1cc(Nc2nccc(-c3c(-c4ccc(OC)c(C(=O)Nc5c(F)cccc5F)c4)nc4ccccn34)n2)c(OC)cc1N1CCC(N2CCN(S(C)(=O)=O)CC2)CC1`, the GI50 in [1] is 88.8 µM; in assay [2] it was 44.3 µM; in assay [3], more than 100 µM; in [4] it was more than 100 µM; in [5], more than 100 µM; in assay [6] it was more than 100 µM. The GI50 was more than 100 µM in assay [7], more than 100 µM in assay [8], more than 69.3 µM in assay [9] and more than 100 µM in assay [10]. Besides, the TGI in [1], in [2], in assay [3], in assay [4], in assay [5] and in assay [6] was more than 100 µM throughout. Besides, the TGI in assay [7], in assay [8], in assay [9] and in assay [10] was more than 100 µM throughout.
